The target in experiment [1] is T1, AR-VP16 (Homo sapiens, UniProt P10275).
T1 sequence (P10275 560-920 limits assumed): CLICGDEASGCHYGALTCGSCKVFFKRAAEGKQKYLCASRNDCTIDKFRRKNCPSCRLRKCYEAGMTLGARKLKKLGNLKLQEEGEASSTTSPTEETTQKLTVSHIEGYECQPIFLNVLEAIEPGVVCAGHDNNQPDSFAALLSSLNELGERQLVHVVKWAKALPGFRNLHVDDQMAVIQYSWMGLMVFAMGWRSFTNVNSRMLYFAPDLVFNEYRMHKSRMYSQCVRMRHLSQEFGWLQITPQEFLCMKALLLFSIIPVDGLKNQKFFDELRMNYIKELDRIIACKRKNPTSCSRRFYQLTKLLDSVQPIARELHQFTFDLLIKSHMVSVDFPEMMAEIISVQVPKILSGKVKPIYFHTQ
As to the kind of experiment: AR-VP16 DNA Binding Assay, agonist mode (HepG2 cells). It is filed as cell-based. The settings on record: Emax >20x DMSO control = agonist.

The target of experiment [2] is T1, AR-VP16. Kind of experiment: AR-VP16 DNA Binding Assay, antagonist mode (HepG2 cells, 0.1 nM R1881). It is filed as cell-based. The procedure, abridged:
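Transfected HepG2 cells expressing AR-VP16 received serially diluted compound in charcoal-stripped-serum RPMI the day after transfection, with 0.1 nM R1881 (final) added only for antagonist testing. After 48 h, cells were lysed for measurement.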

The record followed here is patent US9108944B2, “Androgen receptor modulators and uses thereof” (ARAGON PHARMACEUTICALS, INC., priority 2010, dated 2015).

Consider `CCOC(=O)c1ccc(N2C(=S)N(c3cnc(C#N)c(C(F)(F)F)c3)C(=O)C23CCC3)cc1F` [Compound 3, Ethyl 4-(7-(6-cyano-5-(trifluoromethyl)pyridin-3-yl)-8-oxo-6-thioxo-5,7-diazaspiro[3.4]octan-5-yl)-2-fluorobenzoate], for which, on AR-VP16 [1], the “ARVP16 DNA Binding Assay (Agonist mode): Agonist?” value (from here on “ARVP16 DNA Binding Assay”) is reported as “No (Agonist defined as a compound whose Emax in the ARVP16 DNA Binding Assay (Agonist mode) is >20x DMSO control)”. For the same compound, the IC50 at AR-VP16 [2] was > 1000 nM.

As for `CNC(=O)c1ccc(N2C(=S)N(c3cnc(C#N)c(C)c3)C(=O)C23CCC3)cc1F` [Compound 5, 4-(7-(6-Cyano-5-methylpyridin-3-yl)-8-oxo-6-thioxo-5,7-diazaspiro[3.4]octan-5-yl)-2-fluoro-N-methylbenzamide], on AR-VP16 [1], the “ARVP16 DNA Binding Assay” value is “No (Agonist defined as a compound whose Emax in the ARVP16 DNA Binding Assay (Agonist mode) is >20x DMSO control)”. Further, the IC50 at AR-VP16 [2] is < 1000 nM.

Take `CNC(=O)c1ccc(N2C(=S)N(c3cnc(C#N)c(C)c3)C(=O)C23CCCC3)cc1F` [Compound 6, 4-(3-(6-Cyano-5-methylpyridin-3-yl)-4-oxo-2-thioxo-1,3-diazaspiro[4.4]nonan-1-yl)-2-fluoro-N-methylbenzamide]: the “ARVP16 DNA Binding Assay” value on AR-VP16 [1] is “No (Agonist defined as a compound whose Emax in the ARVP16 DNA Binding Assay (Agonist mode) is >20x DMSO control)”. Also, the IC50 at AR-VP16 [2] was < 1000 nM.

As to `Cc1ccc(-c2ccc(N3C(=S)N(c4cnc(C#N)c(C)c4)C(=O)C34CCC4)cc2)o1` [Compound 7, 3-Methyl-5-(5-(4-(5-methylfuran-2-yl)phenyl)-8-oxo-6-thioxo-5,7-diazaspiro[3.4]octan-7-yl)picolinonitrile], the “ARVP16 DNA Binding Assay” value at AR-VP16 [1] is “No (Agonist defined as a compound whose Emax in the ARVP16 DNA Binding Assay (Agonist mode) is >20x DMSO control)”. Also, the IC50 at AR-VP16 [2] is < 1000 nM.

For `CCOC(=O)c1cc(N2C(=S)N(c3cnc(C#N)c(C(F)(F)F)c3)C(=O)C23CCC3)ccc1F` [Compound 8, Ethyl 5-(7-(6-cyano-5-(trifluoromethyl)pyridin-3-yl)-8-oxo-6-thioxo-5,7-diazaspiro[3.4]octan-5-yl)-2-fluorobenzoate], the “ARVP16 DNA Binding Assay” value on AR-VP16 [1] was “No (Agonist defined as a compound whose Emax in the ARVP16 DNA Binding Assay (Agonist mode) is >20x DMSO control)”. Also, the IC50 on AR-VP16 [2] was > 1000 nM.

For `N#Cc1ccccc1N1C(=S)N(c2cnc(C#N)c(C(F)(F)F)c2)C(=O)C12CCC2` [Compound 10, 5-(5-(2-Cyanophenyl)-8-oxo-6-thioxo-5,7-diazaspiro[3.4]octan-7-yl)-3-(trifluoromethyl)picolinonitrile], on AR-VP16 [1], the “ARVP16 DNA Binding Assay” value is given as “No (Agonist defined as a compound whose Emax in the ARVP16 DNA Binding Assay (Agonist mode) is >20x DMSO control)”. Besides, the IC50 at AR-VP16 [2] was > 1000 nM.

As for `N#Cc1cccc(N2C(=S)N(c3cnc(C#N)c(C(F)(F)F)c3)C(=O)C23CCC3)c1` [Compound 11, 5-(5-(3-Cyanophenyl)-8-oxo-6-thioxo-5,7-diazaspiro[3.4]octan-7-yl)-3-(trifluoromethyl)picolinonitrile], the “ARVP16 DNA Binding Assay” value on AR-VP16 [1] is reported as “No (Agonist defined as a compound whose Emax in the ARVP16 DNA Binding Assay (Agonist mode) is >20x DMSO control)”. The IC50 on AR-VP16 [2] was < 1000 nM.

With `N#Cc1ccc(N2C(=S)N(c3cnc(C#N)c(C(F)(F)F)c3)C(=O)C23CCC3)cc1` [Compound 12, 5-(5-(4-Cyanophenyl)-8-oxo-6-thioxo-5,7-diazaspiro[3.4]octan-7-yl)-3-(trifluoromethyl)picolinonitrile], the “ARVP16 DNA Binding Assay” value on AR-VP16 [1] was “No (Agonist defined as a compound whose Emax in the ARVP16 DNA Binding Assay (Agonist mode) is >20x DMSO control)”. Besides, the concentration for half-maximal inhibition (IC50) on AR-VP16 [2] was < 1000 nM.

With `N#Cc1ncc(N2C(=O)C3(CCC3)N(c3cccc(-c4ccccc4)c3)C2=S)cc1C(F)(F)F` [Compound 14, 5-(5-([1,1′-Biphenyl]-3-yl)-8-oxo-6-thioxo-5,7-diazaspiro[3.4]octan-7-yl)-3-(trifluoromethyl)picolinonitrile], at AR-VP16 [1], the “ARVP16 DNA Binding Assay” value is listed as “No (Agonist defined as a compound whose Emax in the ARVP16 DNA Binding Assay (Agonist mode) is >20x DMSO control)”. Also, the IC50 at AR-VP16 [2] was > 1000 nM.

As to `N#Cc1ncc(N2C(=O)C3(CCC3)N(c3ccccc3-c3ccccc3)C2=S)cc1C(F)(F)F` [Compound 15, 5-(5-([1,1′-Biphenyl]-2-yl)-8-oxo-6-thioxo-5,7-diazaspiro[3.4]octan-7-yl)-3-(trifluoromethyl)picolinonitrile], at AR-VP16 [1], the “ARVP16 DNA Binding Assay” value is listed as “No (Agonist defined as a compound whose Emax in the ARVP16 DNA Binding Assay (Agonist mode) is >20x DMSO control)”. For the same compound, on AR-VP16 [2], the IC50 was > 1000 nM.

`N#Cc1ncc(N2C(=O)C3(CCC3)N(c3ccc(-c4ccccn4)cc3)C2=S)cc1C(F)(F)F` [Compound 16, 5-(8-Oxo-5-(4-(pyridin-2-yl)phenyl)-6-thioxo-5,7-diazaspiro[3.4]octan-7-yl)-3-(trifluoromethyl)picolinonitrile]: the “ARVP16 DNA Binding Assay” value on AR-VP16 [1] is recorded as “No (Agonist defined as a compound whose Emax in the ARVP16 DNA Binding Assay (Agonist mode) is >20x DMSO control)”. Moreover, the IC50 on AR-VP16 [2] was < 1000 nM.

Consider `N#Cc1ncc(N2C(=O)C3(CCC3)N(c3ccc(-c4ccncc4)cc3)C2=S)cc1C(F)(F)F` [Compound 18, 5-(8-Oxo-5-(4-(pyridin-4-yl)phenyl)-6-thioxo-5,7-diazaspiro[3.4]octan-7-yl)-3-(trifluoromethyl)picolinonitrile], for which, on AR-VP16 [1], the “ARVP16 DNA Binding Assay” value is reported as “Yes (Agonist defined as a compound whose Emax in the ARVP16 DNA Binding Assay (Agonist mode) is >20x DMSO control)”. Further, at AR-VP16 [2], the IC50 was < 1000 nM.

`Cc1ccccc1N1C(=S)N(c2cnc(C#N)c(C(F)(F)F)c2)C(=O)C12CCC2` [Compound 20, 5-(8-Oxo-6-thioxo-5-(o-tolyl)-5,7-diazaspiro[3.4]octan-7-yl)-3-(trifluoromethyl)picolinonitrile]: the “ARVP16 DNA Binding Assay” value on AR-VP16 [1] is listed as “No (Agonist defined as a compound whose Emax in the ARVP16 DNA Binding Assay (Agonist mode) is >20x DMSO control)”. Also, the IC50 at AR-VP16 [2] is < 1000 nM.

As to `Cc1ccc(N2C(=S)N(c3cnc(C#N)c(C(F)(F)F)c3)C(=O)C23CCC3)cc1` [Compound 22, 5-(8-Oxo-6-thioxo-5-(p-tolyl)-5,7-diazaspiro[3.4]octan-7-yl)-3-(trifluoromethyl)picolinonitrile], the “ARVP16 DNA Binding Assay” value on AR-VP16 [1] is reported as “No (Agonist defined as a compound whose Emax in the ARVP16 DNA Binding Assay (Agonist mode) is >20x DMSO control)”. Also, the IC50 on AR-VP16 [2] was < 1000 nM.

As for `N#Cc1ncc(N2C(=O)C3(CCC3)N(c3ccccc3Oc3ccccc3)C2=S)cc1C(F)(F)F` [Compound 23, 5-(8-Oxo-5-(2-phenoxyphenyl)-6-thioxo-5,7-diazaspiro[3.4]octan-7-yl)-3-(trifluoromethyl)picolinonitrile], on AR-VP16 [1], the “ARVP16 DNA Binding Assay” value was “No (Agonist defined as a compound whose Emax in the ARVP16 DNA Binding Assay (Agonist mode) is >20x DMSO control)”. The IC50 on AR-VP16 [2] is > 1000 nM.

As for `N#Cc1ncc(N2C(=O)C3(CCC3)N(c3cccc(Oc4ccccc4)c3)C2=S)cc1C(F)(F)F` [Compound 24, 5-(8-Oxo-5-(3-phenoxyphenyl)-6-thioxo-5,7-diazaspiro[3.4]octan-7-yl)-3-(trifluoromethyl)picolinonitrile], at AR-VP16 [1], the “ARVP16 DNA Binding Assay” value was “No (Agonist defined as a compound whose Emax in the ARVP16 DNA Binding Assay (Agonist mode) is >20x DMSO control)”. The IC50 at AR-VP16 [2] is > 1000 nM.
